Measurements taken from patent US20260207618A1, “PYRIMIDINE CARBOXAMIDE COMPOUNDS” (Acrivon Therapeutics, Inc., priority 2022, published 2026).
pEC50, pIC50: −log10 of the molar value.

Experiments:
[1] = biological target: T1, recombinant human Wee1A kinase (Homo sapiens, UniProt P30291); assay: LanthaScreen Europium (Eu) Kinase Binding Assay, Wee1A kinase (TR-FRET tracer displacement); conditions: 30 nM tracer 178, 5 nM Wee1A kinase, 60 minutes at room temperature
T1 construct: full length Wee1A kinase was expressed by baculovirus in insect cells; purchased Invitrogen PV3817; host or cells: insect cells (baculovirus)
T1 sequence (P30291 whole entry): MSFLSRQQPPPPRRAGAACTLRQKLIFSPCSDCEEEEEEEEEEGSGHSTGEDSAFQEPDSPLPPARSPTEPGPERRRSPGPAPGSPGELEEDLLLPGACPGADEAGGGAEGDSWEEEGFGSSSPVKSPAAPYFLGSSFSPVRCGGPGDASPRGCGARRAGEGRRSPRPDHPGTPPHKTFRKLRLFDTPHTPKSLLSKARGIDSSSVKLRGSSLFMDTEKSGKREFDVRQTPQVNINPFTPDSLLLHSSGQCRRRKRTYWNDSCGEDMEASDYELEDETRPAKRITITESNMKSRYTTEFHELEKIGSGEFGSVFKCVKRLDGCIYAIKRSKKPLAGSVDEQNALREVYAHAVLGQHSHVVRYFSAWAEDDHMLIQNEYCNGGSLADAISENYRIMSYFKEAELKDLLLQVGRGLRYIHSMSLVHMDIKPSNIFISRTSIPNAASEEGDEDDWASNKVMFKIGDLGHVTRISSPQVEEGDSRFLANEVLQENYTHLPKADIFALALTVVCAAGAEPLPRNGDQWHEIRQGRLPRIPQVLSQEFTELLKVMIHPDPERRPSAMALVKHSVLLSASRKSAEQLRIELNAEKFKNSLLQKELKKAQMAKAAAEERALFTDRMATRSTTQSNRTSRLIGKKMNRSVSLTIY

[2] = system: Cdk1 phosphorylated on tyrosine 15; assay: High-content imaging of pCdk1 Y15 by immunofluorescence in ACHN cells; type: cell-based; conditions: Homo sapiens, high-content imaging (IF), 4 h, 7 to 5000 nM, read-out: CDK1 Tyr15 Phosphorylation EC50 (IC50)
How it was run: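 ACHN cells were treated with compounds at 7–5000 nM for 4 h, then fixed, permeabilised and immunostained for pCDK1 Y15, with DAPI as nuclear counterstain. Automated imaging gave the percentage of cells with nuclear pCDK1 Y15 positivity relative to DMSO control. EC50 values came from dose-response curves.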

ACHN cells = assay: Cell Titer Glo viability assay in ACHN cells; type: cell-based; conditions: Homo sapiens, 144 h, 0.17 to 10,000 nM
Experimental: ACHN renal cell carcinoma cell line (ATCC) was cultured in Minimum Essential Medium Eagle supplemented with 10% fetal calf serum (Sigma), 1% Penicillin-Streptomycin and 10 mM HEPES buffer (HyClone). Cell cultures were kept in a humidified incubator at 37° C. and 5% CO2. Cells were routinely tested for Mycoplasma contamination.
ACHN cells were seeded at a density of 400 cells per well in tissue culture treated 384 well plates (Corning Costar). After overnight incubation, cells were treated with drugs at concentrations ranging from 0.17 to 10,000 nM. Viability compared to untreated control was assessed at 144 h using Cell Titer Glo assay 2.0 (Promega).

SMILES | pIC50 [1] | pEC50 [2] | pEC50 (ACHN cells)
COc1nc(Nc2ccc([C@H]3CCNC3)c(C)c2)ncc1C(=O)Nc1c(Cl)cccc1Br (single isomer, unassigned) [Compound 194] | ≥ 8.00 | 6.30 to 7.00 | 6.00 to 6.60
COc1nc(Nc2ccc([C@@H]3CCNC3)c(C)c2)ncc1C(=O)Nc1c(Cl)cccc1Br (single isomer, unassigned) [Compound 195] | ≥ 8.00 | 6.30 to 7.00 | 6.00 to 6.60
COc1nc(Nc2ccc([C@@H]3CCCN(C)C3)c(C)c2)ncc1C(=O)Nc1c(Cl)cccc1Br (single isomer, unassigned) [Compound 197] | ≥ 8.00 | 6.30 to 7.00 | ≥ 6.60
COc1nc(Nc2ccc(C3CCN(C)CC3)c(C)c2)ncc1C(=O)Nc1c(Cl)cccc1Cl [Compound 100, N-(2,6-dichlorophenyl)-4-methoxy-2-((3-methyl-4-(1-methylpiperidin-4-yl)phenyl)amino)pyrimidine-5-carboxamide] | ≥ 8.00 | ≥ 7.00 | 6.00 to 6.60
COc1nc(Nc2ccc(C3CCN(C)CC3)c(C)c2)ncc1C(=O)Nc1c(Cl)cccc1Br [Compound 110, N-(2-bromo-6-chlorophenyl)-4-methoxy-2-((3-methyl-4-(1-methylpiperidin-4-yl)phenyl)amino)pyrimidine-5-carboxamide] | ≥ 8.00 | ≥ 7.00 | ≥ 6.60
COc1nc(Nc2ccc3c(c2)CN(C)CC3)ncc1C(=O)Nc1c(Cl)cccc1Cl [Compound 116, N-(2,6-dichlorophenyl)-4-methoxy-2-((2-methyl-1,2,3,4-tetrahydroisoquinolin-7-yl)amino)pyrimidine-5-carboxamide] | ≥ 8.00 | ≥ 7.00 | 6.00 to 6.60
COc1nc(Nc2ccc(C3CCN(C)CC3)c(C)c2)ncc1C(=O)Nc1c(Cl)cccc1C(F)(F)F [Compound 122, N-(2-chloro-6-(trifluoromethyl)phenyl)-4-methoxy-2-((3-methyl-4-(1-methylpiperidin-4-yl)phenyl)amino)pyrimidine-5-carboxamide] | ≥ 8.00 | 6.30 to 7.00 | 6.00 to 6.60
COc1nc(Nc2ccc([C@H]3CCN(C)C3)c(C)c2)ncc1C(=O)Nc1c(Cl)cccc1Br [Compound 192] | ≥ 8.00 | 6.30 to 7.00 | –
COc1nc(Nc2ccc([C@@H]3CCN(C)C3)c(C)c2)ncc1C(=O)Nc1c(Cl)cccc1Br [Compound 193] | ≥ 8.00 | ≥ 7.00 | –
COc1nc(Nc2ccc([C@H]3CCCN(C)C3)c(C)c2)ncc1C(=O)Nc1c(Cl)cccc1Br [Compound 196, (R)—N-(2-bromo-6-chlorophenyl)-4-methoxy-2-((3-methyl-4-(1-methylpiperidin-3-yl)phenyl)amino)pyrimidine-5-carboxamide] | ≥ 8.00 | 6.30 to 7.00 | –
COc1nc(Nc2ccc([C@H]3CCCNC3)c(C)c2)ncc1C(=O)Nc1c(Cl)cccc1Br [Compound 198, (R)—N-(2-bromo-6-chlorophenyl)-4-methoxy-2-((3-methyl-4-(piperidin-3-yl)phenyl)amino)pyrimidine-5-carboxamide] | ≥ 8.00 | 6.30 to 7.00 | –
COc1nc(Nc2ccc([C@@H]3CCCNC3)c(C)c2)ncc1C(=O)Nc1c(Cl)cccc1Br [Compound 199, (S)—N-(2-bromo-6-chlorophenyl)-4-methoxy-2-((3-methyl-4-(piperidin-3-yl)phenyl)amino)pyrimidine-5-carboxamide] | ≥ 8.00 | 6.30 to 7.00 | –
CCOc1nc(Nc2cnn(CCCN(C)C)c2)ncc1C(=O)Nc1c(Cl)cccc1Br [Compound 200, N-(2-bromo-6-chlorophenyl)-2-{1-[3-(dimethylamino)propyl]-4-pyrazolylamino}-4-ethoxy-5-pyrimidinecarboxamide] | – | 6.30 to 7.00 | 6.00 to 6.60
CCOc1nc(Nc2cnn([C@@H](C)CNC)c2)ncc1C(=O)Nc1c(Cl)cccc1Br [Compound 201, N-(2-bromo-6-chlorophenyl)-2-{1-[(S)-1-methyl-2-(methylamino)ethyl]-4-pyrazolylamino}-4-ethoxy-5-pyrimidinecarboxamide] | ≥ 8.00 | < 6.00 | –
CCOc1nc(Nc2cnn([C@@H](C)CN(C)C)c2)ncc1C(=O)Nc1c(Cl)cccc1Br [Compound 202, N-(2-bromo-6-chlorophenyl)-2-{1-[(S)-2-(dimethylamino)-1-methylethyl]-4-pyrazolylamino}-4-ethoxy-5-pyrimidinecarboxamide] | ≥ 8.00 | < 6.00 | –
CCOc1nc(Nc2cnn([C@H](C)CNC)c2)ncc1C(=O)Nc1c(Cl)cccc1Br [Compound 203, N-(2-bromo-6-chlorophenyl)-2-{1-[(R)-1-methyl-2-(methylamino)ethyl]-4-pyrazolylamino}-4-ethoxy-5-pyrimidinecarboxamide] | ≥ 8.00 | < 6.00 | –
CCOc1nc(Nc2cnn([C@H](C)CN(C)C)c2)ncc1C(=O)Nc1c(Cl)cccc1Br [Compound 204] | ≥ 8.00 | < 6.00 | –
COc1nc(Nc2ccc(N3CCCN(C)CC3)cc2)ncc1C(=O)Nc1c(Cl)cccc1Br [Compound 206, N-(2-bromo-6-chlorophenyl)-4-methoxy-2-[p-(4-methyl-1,4-diazepan-1-yl)phenylamino]-5-pyrimidinecarboxamide] | ≥ 8.00 | 6.30 to 7.00 | –
COc1nc(Nc2ccc(N3CCCNCC3)cc2)ncc1C(=O)Nc1c(Cl)cccc1Br [Compound 207, 2-((4-(1,4-diazepan-1-yl)phenyl)amino)-N-(2-bromo-6-chlorophenyl)-4-methoxypyrimidine-5-carboxamide] | ≥ 8.00 | 6.30 to 7.00 | –
COc1nc(Nc2ccc(N3CCC4(CCN(C)CC4)CC3)cc2)ncc1C(=O)Nc1c(Cl)cccc1Br [Compound 209, N-(2-bromo-6-chlorophenyl)-4-methoxy-2-{p-(9-methyl-3,9-diaza-3-spiro[5.5]undecyl)phenylamino}-5-pyrimidinecarboxamide] | ≥ 8.00 | 6.30 to 7.00 | –
COc1nc(Nc2ccc(O[C@@H]3CCNC3)c(C)c2)ncc1C(=O)Nc1c(Cl)cccc1Br [Compound 210] | – | 6.30 to 7.00 | 6.00 to 6.60

The remaining lines, values ahead:

pIC50 [1] | pEC50 [2] | pEC50 (ACHN cells) | SMILES
≥ 8.00 | 6.30 to 7.00 | – | COc1nc(Nc2ccc(O[C@@H]3CCN(C)C3)c(C)c2)ncc1C(=O)Nc1c(Cl)cccc1Br [Compound 211]
≥ 8.00 | 6.30 to 7.00 | – | COc1nc(Nc2cc(C)c(N3CCC(N(C)C)CC3)c(F)c2)ncc1C(=O)Nc1c(Cl)cccc1Br [Compound 214]
≥ 8.00 | 6.30 to 7.00 | – | COc1nc(Nc2ccc(C3CCN(C)CC3)c(Cl)c2)ncc1C(=O)Nc1c(Cl)cccc1Br [Compound 215, N-(2-bromo-6-chlorophenyl)-2-[3-chloro-4-(1-methyl-4-piperidyl)phenylamino]-4-methoxy-5-pyrimidinecarboxamide]
≥ 8.00 | 6.30 to 7.00 | – | COc1cc(Nc2ncc(C(=O)Nc3c(Cl)cccc3Br)c(OC)n2)ccc1C1CCN(C)CC1 [Compound 216, N-(2-bromo-6-chlorophenyl)-4-methoxy-2-((3-methoxy-4-(1-methylpiperidin-4-yl)phenyl)amino)pyrimidine-5-carboxamide]
≥ 8.00 | 6.30 to 7.00 | – | CCOc1cc(Nc2ncc(C(=O)Nc3c(Cl)cccc3Br)c(OC)n2)ccc1C1CCN(C)CC1 [Compound 217, N-(2-bromo-6-chlorophenyl)-2-((3-ethoxy-4-(1-methylpiperidin-4-yl)phenyl)amino)-4-methoxypyrimidine-5-carboxamide]
≥ 8.00 | 6.30 to 7.00 | – | CCCOc1cc(Nc2ncc(C(=O)Nc3c(Cl)cccc3Br)c(OC)n2)ccc1C1CCN(C)CC1 [Compound 218, N-(2-bromo-6-chlorophenyl)-4-methoxy-2-((4-(1-methylpiperidin-4-yl)-3-propoxyphenyl)amino)pyrimidine-5-carboxamide]
≥ 8.00 | 6.30 to 7.00 | – | COc1nc(Nc2ccc(OC3CCNCC3)c(C)c2)ncc1C(=O)Nc1c(Cl)cccc1Br [Compound 219]
≥ 8.00 | 6.30 to 7.00 | – | COc1nc(Nc2ccc(OC3CCN(C)CC3)c(C)c2)ncc1C(=O)Nc1c(Cl)cccc1Br [Compound 220, N-(2-bromo-6-chlorophenyl)-4-methoxy-2-((3-methyl-4-((1-methylpiperidin-4-yl)oxy)phenyl)amino)pyrimidine-5-carboxamide]
≥ 8.00 | 6.30 to 7.00 | – | CCOc1nc(Nc2ccc(OC3CCNCC3)c(C)c2)ncc1C(=O)Nc1c(Cl)cccc1Br [Compound 221]
≥ 8.00 | 6.30 to 7.00 | – | CCOc1nc(Nc2ccc(OC3CCN(C)CC3)c(C)c2)ncc1C(=O)Nc1c(Cl)cccc1Br [Compound 222]
≥ 8.00 | < 6.00 | – | COc1nc(Nc2cnn(C)c2)ncc1C(=O)Nc1c(Cl)ccc(O)c1Cl [Compound 223, N-(2,6-dichloro-3-hydroxyphenyl)-4-methoxy-2-((1-methyl-1H-pyrazol-4-yl)amino)pyrimidine-5-carboxamide]
≥ 8.00 | < 6.00 | – | COc1nc(Nc2cnn(C)c2)ncc1C(=O)Nc1c(C)ccc(O)c1C [Compound 224, N-(3-hydroxy-2,6-xylyl)-4-methoxy-2-(1-methyl-4-pyrazolylamino)-5-pyrimidinecarboxamide]
